Source: patent US6737383B1, “Herbicidal oxadiazolidines” (priority 1999, dated 2004)

How the values were obtained:
rice = assay: Test B flood test rice; format: in vivo, Oryza sativa
Procedure, shortened: (§1)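 Flood test on plants grown to the 2-leaf stage; treated plants kept in greenhouse twelve to sixteen days, then visually rated against controls on a 0 (no effect) to 10 (complete control) scale.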

giant foxtail = assay: Test B pre/postemergence giant foxtail; format: in vivo, Setaria faberii
Procedure, shortened: (§2)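 Test chemicals in a non-phytotoxic solvent mixture with surfactant were sprayed preemergence onto planted seeds and postemergence onto plants 2 to 18 cm tall (1- to 4-leaf stage). After twelve to sixteen days in a greenhouse, injury was visually rated against untreated controls from 0 (no effect) to 10 (complete control).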

bamyardgrass = assay: Test B flood test barnyardgrass; format: in vivo, Echinochloa crus-galli
Procedure, shortened: as §1

soybean = assay: Test B pre/postemergence soybean; format: in vivo, Glycine max
Procedure, shortened: as §2

[1] = Rate 62 g/ha, headed Pre-emergence (flood test species), scale 0 to 10 (0 no effect, 10 complete control)
[2] = Rate 125 g/ha, Pre-emergence, flood test species, scale 0 to 10 where 0 is no effect and 10 is complete control
[3] = Rate 250 g/ha, Pre-emergence, flood-test species, scale 0 to 10, 0 is no effect, 10 is complete control
[4] = Rate 500 g/ha, headed Pre-emergence (flood test species), scale 0 to 10 (0 no effect, 10 complete control)
[5] = Preemergence, Rate 62 g/ha, scale of 0 to 10 where 0 is no effect and 10 is complete control
[6] = Preemergence, Rate 125 g/ha, 0 is no effect, 10 is complete control
[7] = Preemergence, Rate 250 g/ha, scale 0 to 10, 0 is no effect, 10 is complete control
[8] = Preemergence, Rate 500 g/ha, scale 0 to 10 (0 no effect, 10 complete control)
[9] = Rate 62 g/ha, Postemergence, scale of 0 to 10 where 0 is no effect and 10 is complete control
[10] = Rate 125 g/ha, Postemergence, scale 0 to 10
[11] = Rate 500 g/ha, Postemergence, scale 0 to 10
[12] = Rate 31 g/ha, Pre-emergence section (flood test species), scale 0 to 10
[13] = Preemergence, Rate 500 g/ha, scale of 0 to 10 where 0 is no effect and 10 is complete control
[14] = Rate 500 g/ha, Pre-emergence, flood test species, scale 0 to 10 (0 no effect, 10 complete control)
[15] = Preemergence, Rate 250 g/ha, scale of 0 to 10 where 0 is no effect and 10 is complete control
[16] = Rate 125 g/ha, Preemergence, scale of 0 to 10 where 0 is no effect and 10 is complete control
[17] = Rate 500 g/ha, Postemergence, scale 0 to 10, 0 no effect, 10 complete control
[18] = Pre-emergence, Rate 1000 g/ha, scale 0 to 10 (0 no effect, 10 complete control)
[19] = Postemergence, Rate 1000 g/ha, scale 0 to 10 (0 no effect, 10 complete control)
[20] = Rate 125 g/ha, Postemergence, scale of 0 to 10 where 0 is no effect and 10 is complete control
[21] = Rate 250 g/ha, Postemergence, scale of 0 to 10 where 0 is no effect and 10 is complete control
[22] = Rate 1000 g/ha, Preemergence, scale 0 to 10 (0 no effect, 10 complete control)
[23] = Postemergence, Rate 31 g/ha, visual rating, scale 0 to 10 (0 no effect, 10 complete control)
[24] = Rate 62 g/ha, Postemergence, scale 0 to 10, 0 no effect, 10 complete control

Row | Compound | Rice plant response rating (rice; [1]) | Rice plant response rating (rice; [2]) | Rice plant response rating (rice; [3]) | Plant response rating, Rice (rice; [4]) | Giant foxtail plant response rating (giant foxtail; [5]) | Giant foxtail plant response rating (0 to 10 scale) (giant foxtail; [6]) | Giant foxtail plant response rating (giant foxtail; [7]) | Giant foxtail plant response rating (giant foxtail; [9]) | Giant foxtail plant response rating (giant foxtail; [10]) | Plant response rating (0 to 10; 0 is no effect, 10 is complete control), Giant foxtail (giant foxtail; Rate 250 g/ha, Postemergence) | Giant foxtail plant response rating (giant foxtail; [11]) | Barnyardgrass plant response rating (bamyardgrass; [1]) | Barnyardgrass plant response rating (bamyardgrass; [2]) | Barnyardgrass plant response rating (bamyardgrass; [3]) | Plant response rating, Barnyardgrass (bamyardgrass; [4]) | Soybean plant response rating (soybean; [5]) | Soybean plant response rating (0 to 10 scale) (soybean; [6]) | Soybean plant response rating (soybean; [9]) | Soybean plant response rating (soybean; [10]) | Plant response rating (0 to 10; 0 is no effect, 10 is complete control), Soybean (soybean; Rate 250 g/ha, Postemergence) | also measured
1 | CCN(C(=O)n1oc(=O)n(C(C)C)c1=O)c1nncs1 [Compound 190] | 0 | 0 | 0 | 0 | 0 | 0 | 0 | 0 | 0 | 0 | 0 | 0 | 0 | 0 | 0 | 0 | 0 | 0 | 0 | 0 | Giant foxtail plant response rating (giant foxtail; [8]): 0; Soybean plant response rating (soybean; [7]): 0; Soybean plant response rating (soybean; [8]): 0; Soybean plant response rating (soybean; [11]): 0
2 | Cc1nc(C)c(-n2c(=O)on(C(=O)N(c3ccc(Cl)cc3)C(C)C)c2=O)s1 [Compound 196] | 0 | 0 | 0 | 0 | 0 | 0 | 0 | 0 | 0 | 0 | 0 | 0 | 0 | 0 | 0 | 0 | 0 | 0 | 0 | 0 | Rice plant response rating (rice; [12]): 0; Plant response rating, Giant foxtail (giant foxtail; [13]): 0; Barnyardgrass plant response rating (bamyardgrass; [12]): 0; Soybean plant response rating (soybean; [7]): 0; Plant response rating, Soybean (soybean; [13]): 0; Soybean plant response rating (soybean; [11]): 0
3 | Cc1nc(C)c(-n2c(=O)on(C(=O)N(c3ccccc3)C(C)C)c2=O)s1 [Compound 197] | 0 | 0 | 0 | 0 | 0 | 0 | 0 | 0 | 0 | 0 | 3 | 0 | 0 | 0 | 0 | 0 | 0 | 0 | 0 | 0 | Plant response rating, Giant foxtail (giant foxtail; [13]): 3; Soybean plant response rating (soybean; [7]): 0; Plant response rating, Soybean (soybean; [13]): 0; Soybean plant response rating (soybean; [11]): 0
4 | CCN(C(=O)n1oc(=O)n(C)c1=O)C1CCCCC1 [Compound 228] | 0 | 0 | 0 |  |  |  |  | 0 | 0 | 0 |  | 0 | 0 | 0 |  | 0 |  | 0 | 0 | 1 | Rice plant response rating (rice; [14]): 0; Giant foxtail plant response rating (giant foxtail; [15]): 9; Plant response rating, Giant foxtail (giant foxtail; [13]): 9; Giant foxtail plant response rating (giant foxtail; [16]): 6; Giant foxtail plant response rating (giant foxtail; [17]): 0; Barnyardgrass plant response rating (bamyardgrass; [14]): 0; Soybean plant response rating (soybean; [15]): 0; Plant response rating, Soybean (soybean; [13]): 0; Soybean plant response rating (soybean; [16]): 0; Soybean plant response rating (soybean; [17]): 1
5 | CCOC(=O)C(C)N(C(=O)n1oc(=O)n(C(C)C)c1=O)c1ccc(F)cc1 (stereo not shown) [Compound 302] |  | 0 | 0 |  |  |  |  |  |  |  |  |  | 0 | 0 |  |  |  |  |  |  | Rice plant response rating (rice; [18]): 0; Rice plant response rating (rice; [14]): 0; Giant foxtail plant response rating (giant foxtail; [19]): 7; Giant foxtail plant response rating (0 to 10 scale) (giant foxtail; Preemergence, Rate 125 g/ha): 6; Giant foxtail plant response rating (giant foxtail; [15]): 7; Giant foxtail plant response rating (giant foxtail; [13]): 9; Giant foxtail plant response rating (giant foxtail; [20]): 1; Plant response rating, Giant foxtail (giant foxtail; [21]): 2; Plant response rating, Giant foxtail (giant foxtail; [22]): 10; Barnyardgrass plant response rating (bamyardgrass; [18]): 0; Barnyardgrass plant response rating (bamyardgrass; [14]): 0; Soybean plant response rating (soybean; [19]): 5; Soybean plant response rating (0 to 10 scale) (soybean; Preemergence, Rate 125 g/ha): 0; Soybean plant response rating (soybean; [15]): 0; Soybean plant response rating (soybean; [13]): 0; Soybean plant response rating (soybean; [20]): 2; Plant response rating, Soybean (soybean; [21]): 3; Plant response rating, Soybean (soybean; [22]): 0
6 | COCC(C)N(C(=O)n1oc(=O)n(-c2ccccc2C)c1=O)c1ccc(F)cc1 (stereo not shown) [Compound 324] | 0 | 0 | 0 |  | 0 |  |  |  |  |  |  | 0 | 0 | 0 |  | 0 |  |  |  |  | Rice plant response rating (rice; [12]): 0; Giant foxtail plant response rating (giant foxtail; [23]): 0; Giant foxtail plant response rating (giant foxtail; Preemergence, Rate 31 g/ha, visual rating, scale 0 to 10 (0 no effect, 10 complete control)): 0; Giant foxtail plant response rating (0 to 10 scale) (giant foxtail; Preemergence, Rate 125 g/ha): 0; Giant foxtail plant response rating (giant foxtail; [15]): 0; Giant foxtail plant response rating (giant foxtail; [24]): 0; Giant foxtail plant response rating (giant foxtail; [20]): 0; Plant response rating, Giant foxtail (giant foxtail; [21]): 0; Barnyardgrass plant response rating (bamyardgrass; [12]): 0; Soybean plant response rating (soybean; [23]): 0; Soybean plant response rating (0 to 10 scale) (soybean; Preemergence, Rate 125 g/ha): 0; Soybean plant response rating (soybean; [15]): 0; Soybean plant response rating (soybean; [24]): 0; Soybean plant response rating (soybean; [20]): 1; Plant response rating, Soybean (soybean; [21]): 1
